{"source": "patent US10632106B2", "about": "“Methods of cancer treatment with 2-(1′H-Indole-3′-carbonyl)-thiazole-4-carboxylic acid methyl ester” (Ariagen, Inc., priority 2009, dated 2020)", "key": {"[1]": {"test_system": "A375 (human skin cancer) xenografts", "assay": "A375 xenograft growth inhibition", "assay_type": "in vivo", "settings": "ITE 100-200 mg/kg i.p. once daily", "protocol": "(§1) All the procedures related to animal handling, care, and the treatment in the study were performed following guidelines of KeyGen Biotechn Co., Ltd. (Nanjing, China), a contract research organization we hired, based on the guidance of the Association for Assessment and Accreditation of Laboratory Animal Care (AAALAC). Animals were checked for any effects of tumor growth and drug treatment on normal behavior such as mobility, food and water consumption, body weight gain/loss (bodyweights were measured every two days), eye/hair matting, and any other abnormal effect. Death and observed clinical signs were recorded. Individual animals with a tumor volume exceeding 3,000 mm^3 or animals of a group with a mean tumor volume exceeding 2,000 mm^3 were euthanized. In addition, animals showing signs of severe distress and/or pain or losing the capability of accessing adequate food or water were humanely sacrificed.\n(§2) Cell lines HCT116, Siha, MFC were cultured in DMEM medium (high glucose) supplemented with 10% fetal bovine serum (FBS), SW116 and T24 in RPMI-1640 medium with 10% FBS, M14 and A375 in DMEM medium (high glucose) with 10% calf serum (CS), SGC7901 and Ketr-3 in RPMI-1640 medium with 10% CS, and CFPAC-1 in IMDM medium with 10% FBS. All of the cells were cultured, in the presence of 100 U/ml penicillin and 100 μg/ml streptomycin, at 37° C. in an atmosphere of 5% CO2 in air. […] The cells growing in an exponential phase were harvested and counted for tumor inoculation. Cell lines 5180 and U14 were maintained in ascites (peritoneal cavity fluid) of mice and were harvested and counted for tumor inoculation. […]\n(§3) Tumor volume was measured every two days in two dimensions using a caliper and the volume was calculated with a formula of: V=0.5 a×b^2, where a and b are the long and short diameter (in mm) of a tumor, respectively. […] The TGD was calculated as: TGD=T−C, where T was the time (in days) required for tumors in a drug treated group to reach a predetermined mean tumor volume and C the time (in days) in the control group to reach the same volume. […]"}, "[2]": {"test_system": "MFC (mouse stomach cancer) homografts", "assay": "MFC homograft (syngeneic) growth inhibition in 615 mice", "assay_type": "in vivo", "settings": "ITE 200-300 mg/kg i.p. once daily", "protocol": "as §1, §2, §3"}, "[3]": {"settings": "end of therapy relative to beginning"}}, "data": [{"smiles": "COC(=O)c1csc(C(=O)c2c[nH]c3ccccc23)n1", "note": "[ITE, 2-(1′H-indole-3′-carbonyl)-thiazole-4-carboxylic acid methyl ester]", "values": [{"measurement": "TGD", "setting": "[1]; TGD at Vol. 1,000", "value": 7, "unit": "days"}, {"measurement": "TGI (%)", "setting": "[1]; TGI at day 16, TGI=(1−ΔT/ΔC)×100%", "value": 60, "unit": "%"}, {"measurement": "Weight Loss", "setting": "[1]; [3]", "value": 18, "unit": "%"}, {"measurement": "TGD", "setting": "[2]; TGD at Vol. 2,000", "value": 9, "unit": "days"}, {"measurement": "TGI (%)", "setting": "[2]; TGI at day 10, TGI=(1−ΔT/ΔC)×100%", "value": 70, "unit": "%"}, {"measurement": "Weight Loss", "setting": "[2]; [3]", "value": 16, "unit": "%"}]}]}
